Measurements taken from publication PMC11606874, “Structural and in vitro anticancer properties of the kaempferol–lactoferrin complex” (Food Science & Nutrition, 2024).

Molecular target: T1, lactoferrin (Bos taurus, UniProt P24627)
T1 construct: gene LTF
Test: intrinsic fluorescence quenching titration (Stern-Volmer and double-logarithmic Ka at […] K), synchronous fluorescence, UV-vis difference spectra
Format: binding
Details: read-out: K a (L mol^-1) (converted)

T1 sequence (P24627 20-708): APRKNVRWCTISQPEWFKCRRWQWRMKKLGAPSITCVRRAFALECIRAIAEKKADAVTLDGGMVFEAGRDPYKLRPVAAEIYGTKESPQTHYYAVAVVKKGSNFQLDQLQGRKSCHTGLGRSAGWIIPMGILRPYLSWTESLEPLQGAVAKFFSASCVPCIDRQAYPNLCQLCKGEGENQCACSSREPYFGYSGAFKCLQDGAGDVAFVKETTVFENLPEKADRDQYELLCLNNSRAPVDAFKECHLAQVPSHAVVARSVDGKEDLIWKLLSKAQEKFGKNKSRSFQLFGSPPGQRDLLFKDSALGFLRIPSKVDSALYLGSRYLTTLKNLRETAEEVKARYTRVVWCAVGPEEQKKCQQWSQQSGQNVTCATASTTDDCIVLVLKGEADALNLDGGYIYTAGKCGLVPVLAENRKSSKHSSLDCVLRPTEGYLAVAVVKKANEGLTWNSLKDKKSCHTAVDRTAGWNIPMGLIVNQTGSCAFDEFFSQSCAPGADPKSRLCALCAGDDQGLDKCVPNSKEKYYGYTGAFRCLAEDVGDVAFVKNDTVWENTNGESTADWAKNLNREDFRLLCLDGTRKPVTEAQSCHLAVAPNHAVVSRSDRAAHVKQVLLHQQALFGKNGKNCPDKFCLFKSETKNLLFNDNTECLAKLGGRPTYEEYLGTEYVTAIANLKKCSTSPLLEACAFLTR

Q: With `O=c1c(O)c(-c2ccc(O)cc2)oc2cc(O)cc(O)c12` [KAE, kaempferol] as the compound, how does the Kd read?
A: 43.3 µM
